Like-named read-outs stand apart in the source and are kept apart here.

One assay concerns OE33 cell line. The assay can be described thus: Colony formation assay in OE33 cells. It is filed as cell-based, human. The conditions noted are these: for EC50: Homo sapiens, read-out: EC50 colony formation titration assay. The procedure: A cell based colony formation assay was used in these experiments. Normal mouse mammary epithelia HC11 cells have little or no endogenous NACK expression, and NACK knockdown had no effect on the growth of HC11 cells (FIG. 5A, lower panel). […] Knockdown of NACK was confirmed by western blot and qPCR (FIGS. 1D and 1E). […] Therefore, compounds that affect OE33 colony formation but not HC11 were desired. In order to screen the compounds, cells were treated with test compounds every other day.
Colony formation assay was utilized to determine the effect of small molecule inhibitors on cell proliferation. In general, different cell lines (NACK dependent or independent) will be seeded in 6-well plates at a density of 2000 cells per well and allowed to attach overnight. Inhibitor treatment commenced 24 hours post seeding, and the media containing inhibitor was changed every 48 hours thereafter. After 168 hours, colonies were be stained with Crystal Violet (Millipore) and counted.

The target of assay [1] is T1, NACK binding to the Notch transcription complex (Mus musculus, UniProt Q571I4).
T1 construct: expressed in transfected cells; host or cells: 293T
T1 sequence (Q571I4 1-1373): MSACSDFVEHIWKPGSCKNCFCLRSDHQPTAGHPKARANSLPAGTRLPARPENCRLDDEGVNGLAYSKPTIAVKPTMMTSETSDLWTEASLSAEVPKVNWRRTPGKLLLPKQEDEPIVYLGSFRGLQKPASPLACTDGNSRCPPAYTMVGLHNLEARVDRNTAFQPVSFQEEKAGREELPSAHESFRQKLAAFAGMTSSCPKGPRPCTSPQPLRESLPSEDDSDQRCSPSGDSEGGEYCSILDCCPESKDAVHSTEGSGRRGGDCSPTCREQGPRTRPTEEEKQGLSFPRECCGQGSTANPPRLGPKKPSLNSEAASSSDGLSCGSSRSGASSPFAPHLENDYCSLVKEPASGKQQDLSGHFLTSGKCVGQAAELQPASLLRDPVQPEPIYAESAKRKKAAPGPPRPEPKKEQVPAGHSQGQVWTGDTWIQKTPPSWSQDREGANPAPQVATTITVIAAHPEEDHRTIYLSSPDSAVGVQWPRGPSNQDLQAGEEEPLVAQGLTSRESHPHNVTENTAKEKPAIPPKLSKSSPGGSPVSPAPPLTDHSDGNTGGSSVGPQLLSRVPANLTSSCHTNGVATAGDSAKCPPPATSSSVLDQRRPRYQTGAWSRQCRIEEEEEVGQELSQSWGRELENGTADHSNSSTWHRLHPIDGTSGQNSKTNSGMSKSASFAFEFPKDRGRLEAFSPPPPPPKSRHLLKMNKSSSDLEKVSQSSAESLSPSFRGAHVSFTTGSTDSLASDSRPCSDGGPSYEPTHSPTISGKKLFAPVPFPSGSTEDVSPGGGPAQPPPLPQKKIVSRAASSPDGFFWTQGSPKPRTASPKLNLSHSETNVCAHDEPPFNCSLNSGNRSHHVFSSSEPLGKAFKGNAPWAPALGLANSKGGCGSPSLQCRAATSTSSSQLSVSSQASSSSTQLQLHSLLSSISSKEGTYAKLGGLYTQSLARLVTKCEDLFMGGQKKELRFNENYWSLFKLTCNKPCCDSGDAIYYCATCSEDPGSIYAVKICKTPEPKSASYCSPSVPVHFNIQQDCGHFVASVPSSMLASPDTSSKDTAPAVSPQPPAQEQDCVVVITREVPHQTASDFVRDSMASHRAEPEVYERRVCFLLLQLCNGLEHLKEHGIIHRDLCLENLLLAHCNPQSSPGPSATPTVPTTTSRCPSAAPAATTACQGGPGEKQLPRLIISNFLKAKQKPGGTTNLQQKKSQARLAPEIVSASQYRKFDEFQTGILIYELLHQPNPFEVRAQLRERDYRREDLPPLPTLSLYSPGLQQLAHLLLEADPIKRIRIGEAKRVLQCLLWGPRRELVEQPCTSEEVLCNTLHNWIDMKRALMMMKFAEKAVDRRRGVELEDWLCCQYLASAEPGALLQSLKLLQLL
As to the kind of experiment: CSL-DNA affinity precipitation (CSL-DAP) assay. In kind it is cell-based. As to the method: To determine the specificity of hit-to-lead compounds targeting NACK activity, it was evaluated whether iNACK can block NACK binding to the Notch complex by conducting CSL-DNA affinity precipitation (CSL-DAP) assay. […] In the CSL-DAP assay, 293T cells were co-transfected with N1^ICD, Maml1 and NACK. Transfections were performed using LipoJet transfection reagent (SL100468, SignaGen Laboratories) according to the manufacturer recommended protocol. After two days of transfection, cells were treated with compounds for 2 hours prior collecting the cell lysate. Cell lysates were incubated with DNA streptavidin beads. Proteins that bound to the beads were analyzed by Western blot.
Western blot was performed as described previously (See Weaver et al., Cancer Research 74, 4741-4751 (2014)). Primary antibodies were α-NACK (1:1,000; against aa209-287 of NACK and affinity purified), α-CSL (1:1,000; generated against full-length CSL and affinity purified), α-Maml1 (1:5,000; Cell Signaling Technology), α-cleaved-Notch1 (1:1,000; Cell Signaling Technology).

Another assay concerns OE33 cells. The assay can be described thus: Senescence-associated β-galactosidase assay. In kind it is cell-based, human. The conditions noted are these: treatment for 3 weeks, FIG. 9B. The procedure: After prolonged Z271-0326 or DAPT treatment for 3 weeks of live cells of OE33, cells were measured by senescence-associated β-galaotosidase activity according to the manufacture recommended protocol (Senescence β-Galaotosidase Staining Kit, Cell Signaling, #9860).

On to `CCN(CC)C(=O)c1cnn2ccc(C3CCN(S(=O)(=O)c4ccc(NC(C)=O)cc4)CC3)cc12` [Compound Z271-0326, 5-(1-((4-acetamidophenyl)sulfonyl)piperidin-4-yl)-N,N-diethylpyrazolo[1,5-a]pyridine-3-carboxamide], for which the EC50 in the assay on OE33 cell line (OE33, OE33 cell line, FIG. 18) was 1.27 µM; in the assay with OE33 cell line (OE33, estimated, FIG. 6C), 1.05 µM. The OE33 colony formation entry in the assay with OE33 cell line (cells treated every other day, FIGS. 5B, 5C) is “effectively inhibit OE33 colony formation”. Further, the “inhibition of NACK binding to the Notch transcription complex” value in assay [1] (293T cells transfected with N1ICD, Maml1, NACK, 2 hours treatment, FIG. 6A) is listed as “dramatically inhibit NACK binding to the NOTCH transcription complex”. The “recruitment of NACK to the Notch ternary complex” value in assay [1] (WT NACK, FIG. 10D) is “block recruitment of NACK to the Notch ternary complex”. Moreover, the “cellular senescence (senescence-associated β-galactosidase activity)” value in the assay with OE33 cells was “resulted in the induction of cellular senescence”.

Source of the values: patent US12077508B2, “Inhibitors of the Notch transcriptional activation complex kinase (“NACK”) and methods for use of the same” (UNIVERSITY OF MIAMI, priority 2018, dated 2024).
